Laboratory results reported in ChEMBL document CHEMBL3045024, “Synthesis, structure and insecticidal activities of some novel amides containing N-pyridylpyrazole moeities” (2012).
Activity calls are given as the source filed them. No cut-off for these calls is given here.

Key:
[1] = tested on: Mythimna separata; assay: Insecticidal activity against fourth-instar larvae of Mythimna separata (Oriental armyworm) reared on compound pre-treated corn leaves assessed as induction of abnormal symptoms at 10 ug/mL measured 36 hr post compound treatment by leaf-dipping assay; type: functional, organism-based
[2] = tested on: Spodoptera exigua; assay: Insecticidal activity against Spodoptera exigua third-instar larvae infested on compound pre-treated cabbage leaves assessed as mortality at 25 ug/mL measured 3 days post compound treatment by leaf-dipping assay; type: functional
[3] = tested on: Spodoptera exigua; assay: Insecticidal activity against Spodoptera exigua third-instar larvae infested on compound pre-treated cabbage leaves assessed as mortality at 50 ug/mL measured 3 days post compound treatment by leaf-dipping assay; type: functional
[4] = tested on: Spodoptera exigua; assay: Insecticidal activity against Spodoptera exigua third-instar larvae infested on compound pre-treated cabbage leaves assessed as mortality at 100 ug/mL measured 3 days post compound treatment by leaf-dipping assay; type: functional
[5] = tested on: Spodoptera exigua; assay: Insecticidal activity against Spodoptera exigua third-instar larvae infested on compound pre-treated cabbage leaves assessed as mortality at 200 ug/mL measured 3 days post compound treatment by leaf-dipping assay; type: functional
[6] = tested on: Plutella xylostella; assay: Insecticidal activity against Plutella xylostella (diamondback moth) second-instar larvae infested on compound pre-treated cabbage leaves assessed as mortality at 100 ug/mL measured 3 days post compound treatment by leaf-dipping assay; type: functional
[7] = tested on: Plutella xylostella; assay: Insecticidal activity against Plutella xylostella (diamondback moth) second-instar larvae infested on compound pre-treated cabbage leaves assessed as mortality at 200 ug/mL measured 3 days post compound treatment by leaf-dipping assay; type: functional
[8] = tested on: Culex pipiens pallens; assay: Insecticidal activity against Culex pipiens pallens (mosquito) fourth-instar larvae assessed as mortality at 2 ug/mL measured 72 hr post compound treatment; type: functional
[9] = tested on: Mythimna separata; assay: Insecticidal activity against fourth-instar larvae of Mythimna separata (Oriental armyworm) reared on compound pre-treated corn leaves assessed as mortality at 5 ug/mL measured 72 hr post compound treatment by leaf-dipping assay; type: functional
[10] = tested on: Mythimna separata; assay: Insecticidal activity against fourth-instar larvae of Mythimna separata (Oriental armyworm) reared on compound pre-treated corn leaves assessed as mortality at 10 ug/mL measured 72 hr post compound treatment by leaf-dipping assay; type: functional
[11] = tested on: Mythimna separata; assay: Insecticidal activity against fourth-instar larvae of Mythimna separata (Oriental armyworm) reared on compound pre-treated corn leaves assessed as mortality at 25 ug/mL measured 72 hr post compound treatment by leaf-dipping assay; type: functional
[12] = tested on: Mythimna separata; assay: Insecticidal activity against fourth-instar larvae of Mythimna separata (Oriental armyworm) reared on compound pre-treated corn leaves assessed as mortality at 50 ug/mL measured 72 hr post compound treatment by leaf-dipping assay; type: functional
[13] = tested on: Mythimna separata; assay: Insecticidal activity against fourth-instar larvae of Mythimna separata (Oriental armyworm) reared on compound pre-treated corn leaves assessed as mortality at 100 ug/mL measured 72 hr post compound treatment by leaf-dipping assay; type: functional
[14] = tested on: Mythimna separata; assay: Insecticidal activity against fourth-instar larvae of Mythimna separata (Oriental armyworm) reared on compound pre-treated corn leaves assessed as mortality at 200 ug/mL measured 72 hr post compound treatment by leaf-dipping assay; type: functional
[15] = tested on: Plutella xylostella; assay: Insecticidal activity against Plutella xylostella (diamondback moth) second-instar larvae infested on compound pre-treated cabbage leaves assessed as mortality at 50 ug/mL measured 3 days post compound treatment by leaf-dipping assay; type: functional
[16] = tested on: Plutella xylostella; assay: Insecticidal activity against Plutella xylostella (diamondback moth) second-instar larvae infested on compound pre-treated cabbage leaves assessed as mortality at 25 ug/mL measured 3 days post compound treatment by leaf-dipping assay; type: functional

| Compound | Activity [1] | mortality at 25 µg/mL [2] [%] | mortality at 50 µg/mL [3] [%] | mortality at 100 µg/mL [4] [%] | mortality at 200 µg/mL [5] [%] | mortality at 100 µg/mL [6] [%] | mortality at 200 µg/mL [7] [%] | mortality at 2 µg/mL [8] [%] | mortality at 5 µg/mL [9] [%] | mortality at 10 µg/mL [10] [%] | mortality at 25 µg/mL [11] [%] | mortality at 50 µg/mL [12] [%] | mortality at 100 µg/mL [13] [%] | mortality at 200 µg/mL [14] [%] | mortality at 50 µg/mL [15] [%] | mortality at 25 µg/mL [16] [%] |
| --- | --- | --- | --- | --- | --- | --- | --- | --- | --- | --- | --- | --- | --- | --- | --- | --- |
| O=C(Nc1ccc([N+](=O)[O-])cc1Cl)c1cc(Br)nn1-c1ncccc1Cl | Active | 65 | 78 | 86 | 91 | 72 | 78 | 80 | 0 | 80 | 100 | 100 | 100 | 100 | 0 | – |
| O=C(Nc1ccc(I)cc1)c1cc(Br)nn1-c1ncccc1Cl | – | – | – | – | – | – | – | 100 | – | – | – | 50 | 100 | 100 | – | – |
| Cc1cc([N+](=O)[O-])ccc1NC(=O)c1cc(Br)nn1-c1ncccc1Cl | – | – | – | – | – | – | – | 40 | – | 50 | 80 | 100 | 100 | 100 | – | – |
| O=C(Nc1ccc(Cl)cc1[N+](=O)[O-])c1cc(Br)nn1-c1ncccc1Cl | – | – | – | – | – | – | – | 40 | – | – | – | – | – | 10 | – | – |
| Cc1cccc([N+](=O)[O-])c1NC(=O)c1cc(Br)nn1-c1ncccc1Cl | – | – | – | – | – | – | – | 50 | – | – | – | 20 | 80 | 100 | – | – |
| CNC(=O)c1cc(Cl)cc(C)c1NC(=O)c1cc(Br)nn1-c1ncccc1Cl [CHLORANTRANILIPROLE] | Active | 100 | 100 | – | – | – | – | 100 | 100 | – | – | – | – | – | 100 | 94 |
| Cc1ccc(NC(=O)c2cc(Br)nn2-c2ncccc2Cl)c(C)c1 | – | – | – | – | – | – | – | – | – | – | – | 0 | 70 | 100 | – | – |
| Cc1cc(Cl)cc([N+](=O)[O-])c1NC(=O)c1cc(Br)nn1-c1ncccc1Cl | – | 92 | 95 | 100 | 98 | 89 | 95 | 20 | – | – | 60 | 100 | 100 | 100 | 84 | 76 |
| Cc1cc([N+](=O)[O-])cc(Cl)c1NC(=O)c1cc(Br)nn1-c1ncccc1Cl | – | – | – | – | – | – | – | – | – | 30 | 70 | 100 | 100 | 100 | – | – |
| O=C(Nc1ccc(F)cc1)c1cc(Br)nn1-c1ncccc1Cl | – | 96 | 92 | 100 | 95 | 98 | 100 | 0 | – | – | 50 | 100 | 100 | 100 | 99 | 88 |
| Cc1cc(Cl)cc(C)c1NC(=O)c1cc(Br)nn1-c1ncccc1Cl | – | 94 | 98 | 100 | 100 | 100 | 100 | 30 | – | 20 | 80 | 100 | 100 | 100 | 97 | 94 |
| O=C(Nc1ccc(F)c(Cl)c1)c1cc(Br)nn1-c1ncccc1Cl | – | – | – | – | – | – | – | – | – | – | – | – | 0 | 100 | – | – |
| CCOc1ccc(NC(=O)c2cc(Br)nn2-c2ncccc2Cl)cc1 | – | – | – | – | – | – | – | 30 | – | – | – | – | 0 | 100 | – | – |
| Cc1cccc(C)c1NC(=O)c1cc(Br)nn1-c1ncccc1Cl | – | – | – | – | – | – | – | – | – | – | – | 40 | 80 | 100 | – | – |
| Cc1cc(Br)cc(C)c1NC(=O)c1cc(Br)nn1-c1ncccc1Cl | – | 93 | 89 | 100 | 100 | 72 | 89 | 30 | – | 30 | 100 | 100 | 100 | 100 | 0 | – |
| O=C(Nc1ccc(Cl)cc1)c1cc(Br)nn1-c1ncccc1Cl | – | 100 | 100 | 100 | 100 | 98 | 100 | 10 | – | 0 | 70 | 100 | 100 | 100 | 100 | 97 |
| O=C(Nc1ccc([N+](=O)[O-])cc1)c1cc(Br)nn1-c1ncccc1Cl | – | – | – | – | – | – | – | 20 | – | – | – | 20 | 90 | 100 | – | – |
| O=C(Nc1cccc(Cl)c1)c1cc(Br)nn1-c1ncccc1Cl | – | – | – | – | – | – | – | – | – | – | – | – | – | 0 | – | – |
| O=C(Nc1ccc([N+](=O)[O-])cc1Br)c1cc(Br)nn1-c1ncccc1Cl | – | 100 | 100 | 100 | 100 | 98 | 100 | 40 | – | – | – | 30 | 100 | 100 | 96 | 90 |
| O=C(Nc1cc(Cl)ccc1Cl)c1cc(Br)nn1-c1ncccc1Cl | – | – | – | – | – | – | – | 10 | – | – | – | – | – | 0 | – | – |
